Experimental data from patent US9708314B2, “Heterocyclic amide compound” (NISSAN CHEMICAL INDUSTRIES, LTD., priority 2013, dated 2017).

Legend:
Format in all cases: in vivo
Cyperus difformis = assay: Test Example 3: herbicidal effect by application to foliage (Wagner pot, water depth 0.1-0.5 cm); settings: Nineteenth Table, application herbicide amount 320 g/ha
Procedure, shortened: (§1)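 Post-emergence foliar application at a stated g/ha rate to plants grown 14 days from seed in alluvial soil, greenhouse 25–30 °C. Visual score after 3 weeks: 0 (≤5% effect) through 5 (≥90%).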

[1] = test system: Echinochloa crus-galli var. crus-galli; assay: as above; settings: Nineteenth Table, application herbicide amount 320 g/ha
Procedure, shortened: as §1

Leptochloa chinensis = assay: as above; settings: Nineteenth Table, application herbicide amount 320 g/ha
Procedure, shortened: as §1

[2] = test system: directly sowed Oryza sativa; assay: Test Example 3: effect on crop by application to foliage (Wagner pot, water depth 0.1-0.5 cm); settings: Nineteenth Table, application herbicide amount 320 g/ha
Procedure, shortened: as §1

Abutilon theophrasti = assay: Test Example 4: herbicidal effect by application to foliage (diluvial soil, plastic box); settings: application to foliage; for M (Abutilon theophrasti) herbicidal effect: application herbicide amount 320 g/ha
Procedure, shortened: (§2)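 Seeds sown in sterilized diluvial soil, covered ~1.5 cm, grown 14 days in greenhouse at 25° C. to 30° C. Emulsion formulation diluted in water to set rate (g/ha) and sprayed onto stems and leaves. Effect scored visually 3 weeks later on 0–5 scale (5 = ≥90% herbicidal ratio, 0 = ≤5%).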

Alopecurus myosuroides = assay: as above; settings: application to foliage; for J (Alopecurus myosuroides) herbicidal effect: application herbicide amount 320 g/ha
Procedure, shortened: as §2

Amaranthus retroflexus = assay: as above; settings: application to foliage; for N (Amaranthus retroflexus) herbicidal effect: application herbicide amount 320 g/ha
Procedure, shortened: as §2

Apera spica-venti. = assay: as above; settings: application to foliage; for L (Apera spica-venti.) herbicidal effect: application herbicide amount 320 g/ha
Procedure, shortened: as §2

Avena fatua = assay: as above; settings: application to foliage; for I (Avena fatua) herbicidal effect: application herbicide amount 320 g/ha
Procedure, shortened: as §2

Chenopodium album = assay: as above; settings: application to foliage; for O (Chenopodium album) herbicidal effect: application herbicide amount 320 g/ha
Procedure, shortened: as §2

Digitaria ciliaris = assay: as above; settings: application to foliage; for F (Digitaria ciliaris) herbicidal effect: application herbicide amount 320 g/ha
Procedure, shortened: as §2

[3] = test system: Echinochloa crus-galli var. crus-galli; assay: as above; settings: application to foliage; for H (Echinochloa crus-galli var. crus-galli) herbicidal effect: application herbicide amount 320 g/ha
Procedure, shortened: as §2

Galium spurium = assay: as above; settings: application to foliage; for Q (Galium spurium) herbicidal effect: application herbicide amount 320 g/ha
Procedure, shortened: as §2

Lolium multiflorum Lam. = assay: as above; settings: application to foliage; for K (Lolium multiflorum Lam.) herbicidal effect: application herbicide amount 320 g/ha
Procedure, shortened: as §2

Setaria viridis = assay: as above; settings: application to foliage; for G (Setaria viridis) herbicidal effect: application herbicide amount 320 g/ha
Procedure, shortened: as §2

Stellaria media = assay: as above; settings: application to foliage; for P (Stellaria media) herbicidal effect: application herbicide amount 320 g/ha
Procedure, shortened: as §2

Veronica persica = assay: as above; settings: application to foliage; for R (Veronica persica) herbicidal effect: application herbicide amount 320 g/ha
Procedure, shortened: as §2

[4] = test system: Beta vulgaris ssp. vulgaris; assay: Test Example 4: effect on crop by application to foliage (diluvial soil, plastic box); settings: application to foliage; for f (Beta vulgaris ssp. vulgaris) effect on crop: application herbicide amount 320 g/ha
Procedure, shortened: as §2

Brassica campestris L. = assay: as above; settings: application to foliage; for g (Brassica campestris L.) effect on crop: application herbicide amount 320 g/ha
Procedure, shortened: as §2

Glycine max = assay: as above; settings: application to foliage; for c (Glycine max) effect on crop: application herbicide amount 320 g/ha
Procedure, shortened: as §2

Triticum aestivum = assay: as above; settings: application to foliage; for e (Triticum aestivum) effect on crop: application herbicide amount 320 g/ha
Procedure, shortened: as §2

Zea mays = assay: as above; settings: application to foliage; for b (Zea mays) effect on crop: application herbicide amount 320 g/ha
Procedure, shortened: as §2

[5] = test system: directly sowed Oryza sativa; assay: as above; settings: application to foliage; for d (directly sowed Oryza sativa) effect on crop: application herbicide amount 320 g/ha
Procedure, shortened: as §2

CCn1ncnc1NC(=O)c1ccc(C(F)(F)F)n2c(C(C)C)nnc12 [4-002]
E (herbicidal effect grade) (Cyperus difformis; application to foliage): 0 (Herbicidal ratio of 5% or less (almost no effect)) | H (herbicidal effect grade) ([1]; application to foliage): 0 (Herbicidal ratio of 5% or less (almost no effect)) | D (herbicidal effect grade) (Leptochloa chinensis; application to foliage): 4 (Herbicidal ratio of 70% or more and less than 90%) | b (effect on crop grade) ([2]; application to foliage): 0 (Herbicidal ratio of 5% or less (almost no effect)) | herbicidal effect, M (Abutilon theophrasti) (Abutilon theophrasti; 320 g/ha): 5 (Herbicidal ratio of 90% or more (almost completely withered)) | herbicidal effect, J (Alopecurus myosuroides) (Alopecurus myosuroides; 320 g/ha): 0 (Herbicidal ratio of 5% or less (almost no effect)) | herbicidal effect, N (Amaranthus retroflexus) (Amaranthus retroflexus; 320 g/ha): 4 (Herbicidal ratio of 70% or more and less than 90%) | herbicidal effect, L (Apera spica-venti.) (Apera spica-venti.; 320 g/ha): 0 (Herbicidal ratio of 5% or less (almost no effect)) | herbicidal effect, I (Avena fatua) (Avena fatua; 320 g/ha): 1 (Herbicidal ratio of 5% or more and less than 20%) | herbicidal effect, O (Chenopodium album) (Chenopodium album; 320 g/ha): 4 (Herbicidal ratio of 70% or more and less than 90%) | herbicidal effect, F (Digitaria ciliaris) (Digitaria ciliaris; 320 g/ha): 1 (Herbicidal ratio of 5% or more and less than 20%) | herbicidal effect, H (Echinochloa crus-galli var. crus-galli) ([3]; 320 g/ha): 2 (Herbicidal ratio of 20% or more and less than 40%) | herbicidal effect, Q (Galium spurium) (Galium spurium; 320 g/ha): 1 (Herbicidal ratio of 5% or more and less than 20%) | herbicidal effect, K (Lolium multiflorum Lam.) (Lolium multiflorum Lam.; 320 g/ha): 0 (Herbicidal ratio of 5% or less (almost no effect)) | herbicidal effect, G (Setaria viridis) (Setaria viridis; 320 g/ha): 1 (Herbicidal ratio of 5% or more and less than 20%) | herbicidal effect, P (Stellaria media) (Stellaria media; 320 g/ha): 3 (Herbicidal ratio of 40% or more and less than 70%) | herbicidal effect, R (Veronica persica) (Veronica persica; 320 g/ha): 1 (Herbicidal ratio of 5% or more and less than 20%) | effect on crop, f (Beta vulgaris ssp. vulgaris) ([4]; 320 g/ha): 0 (Herbicidal ratio of 5% or less (almost no effect)) | effect on crop, g (Brassica campestris L.) (Brassica campestris L.; 320 g/ha): 0 (Herbicidal ratio of 5% or less (almost no effect)) | effect on crop, c (Glycine max) (Glycine max; 320 g/ha): 0 (Herbicidal ratio of 5% or less (almost no effect)) | effect on crop, e (Triticum aestivum) (Triticum aestivum; 320 g/ha): 0 (Herbicidal ratio of 5% or less (almost no effect)) | effect on crop, b (Zea mays) (Zea mays; 320 g/ha): 0 (Herbicidal ratio of 5% or less (almost no effect)) | effect on crop, d (directly sowed Oryza sativa) ([5]; 320 g/ha): 1 (Herbicidal ratio of 5% or more and less than 20%)

Cc1nnc(NC(=O)c2ccc(C(F)(F)F)n3c(CS(=O)(=O)CC(F)(F)F)nnc23)o1 [1-039]
E (Cyperus difformis) herbicidal ratio grade (Cyperus difformis): 3 (Herbicidal ratio of 40% or more and less than 70%) | H (Echinochloa crus-galli var. crus-galli) herbicidal ratio grade [1]: 3 (Herbicidal ratio of 40% or more and less than 70%) | D (Leptochloa chinensis) herbicidal ratio grade (Leptochloa chinensis): 3 (Herbicidal ratio of 40% or more and less than 70%) | b (directly sowed Oryza sativa) effect on crop grade [2]: 2 (Herbicidal ratio of 20% or more and less than 40%) | M (Abutilon theophrasti) herbicidal effect (Abutilon theophrasti): 0 (Herbicidal ratio of 5% or less (almost no effect)) | J (Alopecurus myosuroides) herbicidal effect (Alopecurus myosuroides): 0 (Herbicidal ratio of 5% or less (almost no effect)) | N (Amaranthus retroflexus) herbicidal effect (Amaranthus retroflexus): 1 (Herbicidal ratio of 5% or more and less than 20%) | L (Apera spica-venti.) herbicidal effect (Apera spica-venti.): 0 (Herbicidal ratio of 5% or less (almost no effect)) | I (Avena fatua) herbicidal effect (Avena fatua): 0 (Herbicidal ratio of 5% or less (almost no effect)) | O (Chenopodium album) herbicidal effect (Chenopodium album): 4 (Herbicidal ratio of 70% or more and less than 90%) | F (Digitaria ciliaris) herbicidal effect (Digitaria ciliaris): 2 (Herbicidal ratio of 20% or more and less than 40%) | H (Echinochloa crus-galli var. crus-galli) herbicidal effect [3]: 4 (Herbicidal ratio of 70% or more and less than 90%) | Q (Galium spurium) herbicidal effect (Galium spurium): 0 (Herbicidal ratio of 5% or less (almost no effect)) | K (Lolium multiflorum Lam.) herbicidal effect (Lolium multiflorum Lam.): 0 (Herbicidal ratio of 5% or less (almost no effect)) | G (Setaria viridis) herbicidal effect (Setaria viridis): 0 (Herbicidal ratio of 5% or less (almost no effect)) | P (Stellaria media) herbicidal effect (Stellaria media): 0 (Herbicidal ratio of 5% or less (almost no effect)) | R (Veronica persica) herbicidal effect (Veronica persica): 0 (Herbicidal ratio of 5% or less (almost no effect)) | f (Beta vulgaris ssp. vulgaris) effect on crop [4]: 2 (Herbicidal ratio of 20% or more and less than 40%) | g (Brassica campestris L.) effect on crop (Brassica campestris L.): 0 (Herbicidal ratio of 5% or less (almost no effect)) | c (Glycine max) effect on crop (Glycine max): 0 (Herbicidal ratio of 5% or less (almost no effect)) | e (Triticum aestivum) effect on crop (Triticum aestivum): 0 (Herbicidal ratio of 5% or less (almost no effect)) | b (Zea mays) effect on crop (Zea mays): 0 (Herbicidal ratio of 5% or less (almost no effect)) | d (directly sowed Oryza sativa) effect on crop [5]: 0 (Herbicidal ratio of 5% or less (almost no effect))

Cc1nnc(NC(=O)c2ccc(C(F)(F)F)n3c(COc4ccccc4)nnc23)o1 [1-025]
E (Cyperus difformis) herbicidal ratio grade (Cyperus difformis): 2 (Herbicidal ratio of 20% or more and less than 40%) | H (Echinochloa crus-galli var. crus-galli) herbicidal ratio grade [1]: 4 (Herbicidal ratio of 70% or more and less than 90%) | D (Leptochloa chinensis) herbicidal ratio grade (Leptochloa chinensis): 3 (Herbicidal ratio of 40% or more and less than 70%) | b (directly sowed Oryza sativa) effect on crop grade [2]: 2 (Herbicidal ratio of 20% or more and less than 40%) | M (Abutilon theophrasti) herbicidal effect (Abutilon theophrasti): 5 (Herbicidal ratio of 90% or more (almost completely withered)) | J (Alopecurus myosuroides) herbicidal effect (Alopecurus myosuroides): 0 (Herbicidal ratio of 5% or less (almost no effect)) | N (Amaranthus retroflexus) herbicidal effect (Amaranthus retroflexus): 3 (Herbicidal ratio of 40% or more and less than 70%) | L (Apera spica-venti.) herbicidal effect (Apera spica-venti.): 0 (Herbicidal ratio of 5% or less (almost no effect)) | I (Avena fatua) herbicidal effect (Avena fatua): 0 (Herbicidal ratio of 5% or less (almost no effect)) | O (Chenopodium album) herbicidal effect (Chenopodium album): 5 (Herbicidal ratio of 90% or more (almost completely withered)) | F (Digitaria ciliaris) herbicidal effect (Digitaria ciliaris): 3 (Herbicidal ratio of 40% or more and less than 70%) | H (Echinochloa crus-galli var. crus-galli) herbicidal effect [3]: 4 (Herbicidal ratio of 70% or more and less than 90%) | Q (Galium spurium) herbicidal effect (Galium spurium): 3 (Herbicidal ratio of 40% or more and less than 70%) | K (Lolium multiflorum Lam.) herbicidal effect (Lolium multiflorum Lam.): 0 (Herbicidal ratio of 5% or less (almost no effect)) | G (Setaria viridis) herbicidal effect (Setaria viridis): 2 (Herbicidal ratio of 20% or more and less than 40%) | P (Stellaria media) herbicidal effect (Stellaria media): 4 (Herbicidal ratio of 70% or more and less than 90%) | R (Veronica persica) herbicidal effect (Veronica persica): 3 (Herbicidal ratio of 40% or more and less than 70%) | f (Beta vulgaris ssp. vulgaris) effect on crop [4]: 5 (Herbicidal ratio of 90% or more (almost completely withered)) | g (Brassica campestris L.) effect on crop (Brassica campestris L.): 2 (Herbicidal ratio of 20% or more and less than 40%) | c (Glycine max) effect on crop (Glycine max): 0 (Herbicidal ratio of 5% or less (almost no effect)) | e (Triticum aestivum) effect on crop (Triticum aestivum): 0 (Herbicidal ratio of 5% or less (almost no effect)) | b (Zea mays) effect on crop (Zea mays): 0 (Herbicidal ratio of 5% or less (almost no effect)) | d (directly sowed Oryza sativa) effect on crop [5]: 3 (Herbicidal ratio of 40% or more and less than 70%)
